According to patent US12509437B2, “Substituted thiophene carboxamides and derivatives thereof as microbicides” (Bayer Aktiengesellschaft, priority 2019, dated 2025):
Where two headings read alike, the source gives them in different places.

Columns and labels:
Peronospora parasitica = assay: In vivo preventive test on Peronospora parasitica (Crucifer downy mildew) on cabbage; conditions: Hyaloperonospora parasitica, 120 h, sprayed 72 hours before inoculation, evaluated 5 days after inoculation, read-out: efficacy; for pest or weed control at 125 ppm: 125 ppm of active ingredient; for pest or weed control at 500 ppm: 500 ppm of active ingredient; for pest or weed control at 31 ppm: 31 ppm of active ingredient
Description: (§1) The tested active ingredients were prepared by homogenization in a mixture of acetone/Dimethyl sulfoxide/Tween®, and then diluted with water to obtain the desired active material concentration.
(§2) The young plants of cabbage were treated by spraying the active ingredient prepared as described above. Control plants were treated only with an aqueous solution of acetone/Dimethyl sulfoxide/Tween®.
After 72 hours, the plants were contaminated by spraying the leaves with an aqueous suspension of Peronospora parasitica spores. The contaminated cabbage plants were incubated for 5 days at 20° C. and at 100% relative humidity.
The test was evaluated 5 days after the inoculation. 0% means an efficacy which corresponds to that of the control plants while an efficacy of 100% means that no disease was observed.

[1] = system: Xanthomonas campestris pv. campestris; assay: In vivo preventive test on Xanthomonas campestris pv. campestris (black rot on cabbage); conditions: Xanthomonas campestris, sprayed 72 hours before inoculation, evaluated 8 or 10 days after inoculation, read-out: efficacy; for pest or weed control at 31 ppm: 31 ppm of active ingredient; for pest or weed control at 500 ppm: 500 ppm of active ingredient
Description: as §1, §2
After 72 hours, the plants were contaminated by spraying the leaves with an aqueous bacteria suspension of Xanthomonas campestris pv. campestris. The contaminated cabbage plants were incubated for 8 or 10 days at 27° C. at 95% relative humidity.
The test was evaluated 8 or 10 days after the inoculation. 0% means an efficacy which corresponds to that of the control plants while an efficacy of 100% means that no disease was observed.

[2] = system: Colletotrichum lindemuthianum; assay: In vivo preventive test on Colletotrichum lindemuthianum (Anthracnose on bean); conditions: sprayed 72 hours before inoculation, evaluated 6 days after inoculation; for pest or weed control at 31 ppm / pest or weed control at 125 ppm / pest or weed control at 500 ppm: Colletotrichum lindemuthianum, 144 h, read-out: efficacy; for pest or weed control at 31 ppm: 31 ppm of active ingredient; for pest or weed control at 125 ppm: 125 ppm of active ingredient
Description: as §1
(§3) The young plants of bean were treated by spraying the active ingredient prepared as described above. Control plants were treated only with an aqueous solution of acetone/Dimethyl sulfoxide/Tween®.
After 72 hours, the plants were contaminated by spraying the leaves with an aqueous suspension of Colletotrichum lindemuthianum spores. The contaminated bean plants were incubated for 24 hours at 20° C. and at 100% relative humidity and then for 5 days at 20° C. and at 90% relative humidity.
The test was evaluated 6 days after the inoculation. 0% means an efficacy which corresponds to that of the control plants while an efficacy of 100% means that no disease was observed.

Uromyces appendiculatus = assay: In vivo preventive test on Uromyces appendiculatus (bean rust); conditions: 240 h, sprayed 72 hours before inoculation, evaluated 10 days after inoculation, read-out: efficacy; for pest or weed control at 31 ppm: 31 ppm of active ingredient; for pest or weed control at 500 ppm: 500 ppm of active ingredient; for pest or weed control at 125 ppm: 125 ppm of active ingredient
Description: as §1, §3
After 72 hours, the plants were contaminated by spraying the leaves with an aqueous suspension of Uromyces appendiculatus spores. The contaminated bean plants were incubated for 24 hours at 20° C. and at 100% relative humidity and then for 9 days at 20° C. and at 70-80% relative humidity.
The test was evaluated 10 days after the inoculation. 0% means an efficacy which corresponds to that of the control plants while an efficacy of 100% means that no disease was observed.

[3] = LogP by HPLC on reversed phase columns (EEC directive 79/831 Annex V.A8); format: physicochemical; conditions: for chromatographic logP: reversed phase HPLC columns
Description: [table] If more than one Log P value is available within the same method, all the values are given and separated by “+”. Calibration was done with straight-chain alkan2-ones (with 3 to 16 carbon atoms) with known Log P values (measurement of Log P values using retention times with linear interpolation between successive alkanones). Lambda-max-values were determined using UV-spectra from 200 nm to 400 nm and the peak values of the chromatographic signals.

[4] = system: salicylate responsive promoter sequence of the PR1 (pathogenesis-related protein I) gene (AT2G14610); assay: Induction of defense gene expression in Arabidopsis thaliana (PR1 promoter-GFP reporter plants); format: in vivo; conditions: 72 h, 3rd day after spraying, mock treated leaves set as 1.00, read-out: relative fluorescence value
Description: Arabidopsis thaliana reporter plants containing the coding sequence of a green fluorescent protein (GFP) linked to the salicylate responsive promoter sequence of the PR1 (pathogenesis-related protein I) gene (AT2G14610) were grown for five days and then sprayed with compounds. On the 3rd day after spraying, plant fluorescence was assessed with a MacroFluo instrument from Leica Microsystems (Wetzlar, Germany). Fluorescences were quantified with the Meta-Morph Microscopy Automation & Image Analysis Software (Molecular Devices, Sunnyvale, Calif., United States). Background fluorescence in mock treated leaves was set as 1.00.

[5] = method [a]: LC-UV, acidic range, 0.1% formic acid in water and acetonitrile as eluent

## O=C(NC1(C(=O)O)CC1)c1cc(Cl)c(Cl)s1 [CMP3, reference compound]
Peronospora parasitica
  pest or weed control at 125 ppm: 0%
  pest or weed control at 500 ppm: 0%
[1]
  pest or weed control at 31 ppm: < 40%
  pest or weed control at 500 ppm: 0%

## COC(=O)C1(NC(=O)c2cc(Cl)c(Cl)s2)CC1 [CMP4, reference compound]
[2]
  pest or weed control at 31 ppm: 0%
  pest or weed control at 125 ppm: < 40%
Peronospora parasitica
  pest or weed control at 125 ppm: 0%
  pest or weed control at 500 ppm: 0%
[1]
  pest or weed control at 31 ppm: 0%
  pest or weed control at 500 ppm: 0%
Uromyces appendiculatus
  pest or weed control at 31 ppm: < 40%

## COC(=O)C1(NC(=O)c2cc(Br)c(Br)s2)CC1 [CMP5, reference compound]
[2]
  pest or weed control at 125 ppm: 0%
Peronospora parasitica
  pest or weed control at 125 ppm: < 40%
Uromyces appendiculatus
  pest or weed control at 31 ppm: 0%
  pest or weed control at 500 ppm: < 20%

## CCOC(=O)C1(NC(=O)c2cc(Cl)c(Cl)s2)CC1 [CMP6, reference compound]
[2]
  pest or weed control at 31 ppm: < 40%
Peronospora parasitica
  pest or weed control at 125 ppm: 0%
  pest or weed control at 500 ppm: 0%

## CCCOC(=O)C1(NC(=O)c2cc(Br)c(Br)s2)CC1 [CMP7, reference compound]
Peronospora parasitica
  pest or weed control at 500 ppm: 0%

## O=C(NC(C(=O)O)C1CC1)c1sc(Br)c(Br)c1Br (centres unmarked) [CMP8, reference compound]
[1]
  pest or weed control at 500 ppm: < 10%

## O=C(NC(C(=O)O)C1CC1)c1cc(Br)c(Br)s1 (centres unmarked) [CMP13, reference compound]
Peronospora parasitica
  pest or weed control at 125 ppm: 0%

## COC(=O)C(NC(=O)c1sc(Br)c(Br)c1Br)C1CC1 (centres unmarked) [CMP14, reference compound]
Peronospora parasitica
  pest or weed control at 31 ppm: 0%
  pest or weed control at 125 ppm: 0%

## CCOC(=O)CN(C)C(=O)c1sc(Br)c(Br)c1Br [CMP15, reference compound]
[2]; 500 ppm of active ingredient
  pest or weed control at 500 ppm: < 40%
Peronospora parasitica
  pest or weed control at 125 ppm: < 30%

## COC(=O)CC[C@H](NC(=O)c1sc(Br)c(Br)c1C)C(=O)OC [CMP16, reference compound]
[2]; 500 ppm of active ingredient
  efficacy: 38%

## COC(=O)C1(NC(=O)c2sc(Br)c(Br)c2C)CCC1 [I.131]
[3]; method [a]
  chromatographic logP: 3.4
[4]
  fold induction at 75 ppm: > 2
  fold induction at 300 ppm: > 2
[2]; 500 ppm of active ingredient
  pest or weed control at 500 ppm: 80 to 89%
Peronospora parasitica
  pest or weed control at 31 ppm: 80 to 89%
  pest or weed control at 125 ppm: 90 to 100%
  pest or weed control at 500 ppm: 90 to 100%
Uromyces appendiculatus
  pest or weed control at 125 ppm: 90 to 100%
  pest or weed control at 500 ppm: 90 to 100%

## CCOC(=O)C1(NC(=O)c2sc(Br)c(Br)c2C)CCC1 [I.132]
[3]; method [a]
  chromatographic logP: 3.81
[4]
  fold induction at 75 ppm: > 2
  fold induction at 300 ppm: > 2
[2]; 500 ppm of active ingredient
  pest or weed control at 500 ppm: 70 to 79%
Peronospora parasitica
  pest or weed control at 31 ppm: 80 to 89%
  pest or weed control at 125 ppm: 80 to 89%
  pest or weed control at 500 ppm: 90 to 100%
Uromyces appendiculatus
  pest or weed control at 31 ppm: 90 to 100%
  pest or weed control at 125 ppm: 90 to 100%
  pest or weed control at 500 ppm: 90 to 100%

## CCCOC(=O)C1(NC(=O)c2sc(Br)c(Br)c2C)CCC1 [I.133]
[3]; method [a]
  chromatographic logP: 4.23
[4]
  fold induction at 75 ppm: > 2
  fold induction at 300 ppm: > 2
Peronospora parasitica
  pest or weed control at 31 ppm: 70 to 79%
  pest or weed control at 125 ppm: 90 to 100%
  pest or weed control at 500 ppm: 90 to 100%
Uromyces appendiculatus
  pest or weed control at 31 ppm: 90 to 100%
  pest or weed control at 125 ppm: 90 to 100%
  pest or weed control at 500 ppm: 90 to 100%

## CCCSC(=O)C1(NC(=O)c2sc(Br)c(Br)c2C)CC1 [I.134]
[3]; method [a]
  chromatographic logP: 4.26
[4]
  fold induction at 75 ppm: > 2
  fold induction at 300 ppm: > 2
Peronospora parasitica
  pest or weed control at 500 ppm: 80 to 89%
Uromyces appendiculatus
  pest or weed control at 500 ppm: 90 to 100%

## Cc1c(C(=O)NC(C(=O)OC2CCC2)C2CC2)sc(Cl)c1Cl (centres unmarked) [I.153]
[3]; method [a]
  LogP: 4.44^[a]

## Cc1c(C(=O)NC(C(=O)OC(C)C)C2CC2)sc(Cl)c1Cl (centres unmarked) [I.154]
[3]; method [a]
  LogP: 4.23^[a]

## Cc1c(C(=O)NC2(C(=O)OCC3CC3)CCC2)sc(Cl)c1Cl [I.155]
[3]; method [a]
  LogP: 4.19^[a]

## Cc1c(C(=O)NC2(C(=O)OC(C)(C)C)CCC2)sc(Cl)c1Cl [I.156]
[3]; method [a]
  LogP: 4.55^[a]

## CCCCOC(=O)C1(NC(=O)c2sc(Cl)c(Cl)c2C)CCC1 [I.157]
[3]; method [a]
  LogP: 4.59^[a]

## Cc1c(C(=O)NC2(C(=O)OC3CCCCC3)CCC2)sc(Cl)c1Cl [I.158]
[3]; method [a]
  LogP: 5.08^[a]

## Cc1c(C(=O)NC2(C(N)=S)CC2)sc(Cl)c1Cl [I.159]
[3]; method [a]
  LogP: 2.54^[a]

## CNC(=O)C1(NC(=O)c2sc(Cl)c(Cl)c2C)CC1 [I.160]
[3]; method [a]
  LogP: 2.12^[a]

## Cc1c(C(=O)NC(C(=O)OC(C)(C)C)C2CC2)sc(Cl)c1Cl (centres unmarked) [I.161]
[3]; method [a]
  LogP: 4.70^[a]

## Cc1c(C(=O)N[C@H]2CCCNC2=O)sc(Cl)c1Cl [I.162]
[3]; [5]
  LogP: 2.12^[a]

## Cc1c(C(=O)NC2CCCCNC2=O)sc(Cl)c1Cl (centres unmarked) [I.163]
[3]; [5]
  LogP: 2.67^[a]

## COC(=O)C(C)(Cc1ccccc1)NC(=O)c1sc(Cl)c(Cl)c1C (centres unmarked) [I.166]
[3]; method [a]
  LogP: 4.60^[a]

## Cc1c(C(=O)N[C@H]2CCOC2=O)sc(Cl)c1Cl [I.167]
[3]; [5]
  LogP: 2.34^[a]

## CCOC(=O)CN(C(=O)c1sc(Cl)c(Cl)c1C)C1CC1 [I.168]
[3]; method [a]
  LogP: 3.75^[a]

## Cc1c(C(=O)NC2(C#N)CCSCC2)sc(Br)c1Br [I.169]
[3]; method [a]
  LogP: 3.59^[a]

## Cc1c(C(=O)NC2(C#N)CCC(c3ccccc3)CC2)sc(Br)c1Br (centres unmarked) [I.170]
[3]; [5]
  LogP: 4.78^[a]

## Cc1c(C(=S)NCC(=O)O)sc(Cl)c1Cl [I.172]
[3]; method [a]
  LogP: 2.71^[a]

## Cc1c(C(=S)NC(C)C(=O)O)sc(Br)c1Br (centres unmarked) [I.173]
[3]; method [a]
  LogP: 3.05^[a]

## Cc1c(C(=O)NC2(C#N)CCCSC2)sc(Br)c1Br (centres unmarked) [I.177]
[3]; method [a]
  LogP: 3.50^[a]

## Cc1c(C(=O)NCC(=O)O)sc(Br)c1Br [N-[(4,5-dibromo-3-methyl-2-thienyl)carbonyl]glycine]
[3]; preparation examples, method not indicated, read-out: Log P
  chromatographic logP: 2.05

## O=C(O)c1ccccc1O [Salicylic acid, reference compound]
[4]
  fold induction at 300 ppm: 2.7
